{"source": "paper PMC9882606", "about": "“Rationally designed inhibitors of the Musashi protein-RNA interaction by hotspot mimicry” (Research Square, 2023)", "key": {"[1]": {"target": "T1, hnRNP A1 RRM1 domain (Homo sapiens, UniProt P09651)", "T1 construct": "we expressed and purified hnRNP A1’s RRM1 domain; made in house", "T1 sequence (P09651 14-97 limits assumed)": "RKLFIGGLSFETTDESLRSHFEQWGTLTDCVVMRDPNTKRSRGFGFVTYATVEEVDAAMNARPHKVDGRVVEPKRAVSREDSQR", "assay": "FP competition assay with the same fluorescently-labeled RNA", "assay_type": "binding"}, "[2]": {"system": "MSI2", "assay": "Immunoblot of cellular MSI2 protein levels in PC9 cells", "assay_type": "cell-based, human", "settings": "PC9, 20 μM compound for 1, 3, 6, 24, or 48 hours", "text": "To explore the effect of these MSI2 inhibitors in a cancer-relevant cellular context, we selected two MSI2-dependent cancer cell lines: non-small cell lung cancer cell line PC9 and leukemia cell line K562 [73, 98–101]. Upon treatment of PC9 cells with Ro, R12–8–44–3, or negative control R12-neg, we found at multiple time points that cellular MSI2 protein levels were unchanged (Figure 6a). To confirm target engagement, we therefore adapted the cellular thermal shift assay (CETSA). To determine experimental conditions, we first harvested cells and incubated at increasing temperatures; we then removed aggregated protein by centrifugation and used Western blotting to probe the amount of MSI2 remaining in the soluble fraction (Figure 6b, Figure S9). Having established 49 °C as the midpoint of the transition under these (non-equilibrium) conditions, we then treated cells with our candidate MSI2 inhibitor for 3 h, and heated to 49 °C.\nFigure 6: Direct cellular engagement of MSI2 interaction by R12–44–3. (A) Immunoblot from PC9 cells treated with Ro (positive control), R12-neg (negative control), or R12–8–44–3. Cells were treated with 20 μM compound for 1, 3, 6, 24, or 48 hours. MSI2 protein abundance was then quantified and normalized to untreated sample. One representative image is shown; quantification is presented as the average ± S.E.M. from 3 independent replicates. (B) Thermal-induced aggregation of cellular MSI2 in the PC9 cell line. Cells were briefly incubated at temperatures between 40 °C to 67 °C, then centrifuged and the amount of MSI2 remaining in the soluble fraction was quantified by Western blotting. […] One representative image is shown; quantification is presented as the average ± S.E.M. from 3 independent replicates, normalized first to beta-actin and then to DMSO control. […] One representative image is shown; quantification is presented as the average ± S.E.M. from 3 independent replicates, normalized first to beta-actin and then to DMSO control. […]"}, "[3]": {"system": "EGFR, SMAD3, and MSI2 protein levels", "assay": "Immunoblot of MSI2 downstream targets in PC9 cells", "assay_type": "cell-based, human", "settings": "PC9, 5 μM or 20 μM, 48 hours", "experimental": "(§1) Figure 7: Cellular characterization of MSI2 inhibition by R12–8–44–3. (A) Quantification of mRNA immunoprecipitation (RIP) results. Cells were treated with 10 μM of the indicated compounds for 8 hours. After immunoprecipitation with anti-MSI2, mRNA targets were quantified. The amount of each target mRNA in the pulldown was calculated relative to the input, and results from all targets were normalized to PTP4A1. Treating cells with R12–8–44–3 disrupted the interaction with all four cognate mRNAs (PTP4A, SMAD3, EGFR, and MSI2). Data are presented as the average ± S.E.M. from at least 3 independent replicates. […] Cells were treated with indicated compounds at two concentrations (5 μM and 20 μM) for 48 hours, then protein levels of relevant MSI2 targets were determined (EGFR, SMAD3, and MSI2). One representative image is shown; quantification is presented as the average ± S.E.M. from at least 3 independent replicates, normalized first to beta-actin and then to DMSO-treated cells. (C) Cell viability dose-response quantified by CellTiter-Blue after 3 days (left) and cell proliferation with 10μM of compounds quantified by clonogenic assay after 7 days (right). […] (D) Cell viability quantified by clonogenic assay of PC9 cell line after 7-day treatment with 2 nM osimertinib (osi alone), osimertinib with 10 μM R12–8–44–3, or osimertinib with 10 μM R12-neg. […]"}, "[4]": {"system": "PC9 cells", "assay": "CellTiter-Blue, combination with osimertinib, PC9", "assay_type": "cell-based, human", "settings": "PC9, 3-day treatment, osimertinib with 10 μM compound vs osimertinib alone", "text": "With respect to non-small cell lung cancer (NSCLC) specifically, overexpression of MSI2 has been identified as a mechanism underlying resistance to inhibitors of EGFR – and more importantly, depletion of MSI2 by RNA knockdown increased sensitivity to the third-generation EGFR inhibitor osimertinib both in vitro and in vivo [73, 74]. Despite lack of sensitivity to R12–8–44–3 alone, we therefore hypothesized that R12–8–44–3 would sensitize PC9 cells (an EGFR-mutant lung cancer cell line) to osimertinib."}, "[5]": {"system": "PC9 cells", "assay": "Clonogenic assay, combination with osimertinib, PC9", "assay_type": "cell-based, human", "settings": "PC9, 7 days, 2 nM osimertinib with 10 μM compound", "experimental": "as §1"}, "[6]": {"target": "MSI2 (Homo sapiens, UniProt Q96DH6)", "sequence (Q96DH6 whole entry)": "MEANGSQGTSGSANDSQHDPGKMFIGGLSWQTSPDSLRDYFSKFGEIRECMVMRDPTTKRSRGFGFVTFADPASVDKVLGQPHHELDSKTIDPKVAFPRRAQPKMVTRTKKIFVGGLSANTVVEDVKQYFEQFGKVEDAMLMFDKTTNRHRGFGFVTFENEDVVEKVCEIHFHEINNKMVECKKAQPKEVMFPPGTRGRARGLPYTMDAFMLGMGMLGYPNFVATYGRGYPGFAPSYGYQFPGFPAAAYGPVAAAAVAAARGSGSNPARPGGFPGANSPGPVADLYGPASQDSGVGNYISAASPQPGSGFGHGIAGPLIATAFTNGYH", "assay": "mRNA immunoprecipitation (RIP) with anti-MSI2 in PC9 cells", "assay_type": "cell-based", "set-up": "endogenous in cells; host or cells: PC9", "settings": "PC9, 10 μM, 8 hours", "text": "Among previously described targets of MSI2 are PTP4A, SMAD3, EGFR, and MSI2 itself. To test for disruption of MSI2 with these cognate mRNAs upon treatment with R12–8–44–3, we used mRNA immunoprecipitation (RIP): we used an anti-MSI2 antibody to immunoprecipitate MSI2, then reverse transcribed and analyzed by qPCR to determine the amount of each specific mRNA that was bound to MSI2. As an important control to ensure that the resulting mRNA was indeed brought down by MSI2, we additionally verified that using a negative control antibody (instead of anti-MSI2) brought with it 100-fold less of each target mRNA (Figure S10). As a separate negative control, GAPDH mRNA was also quantified in the context of these studies (since GAPDH is not thought to be a target of MSI2).\nPC9 cells were then treated with 10 μM of each compound for 8 hours and then analyzed by RIP.\nFigure 7: Cellular characterization of MSI2 inhibition by R12–8–44–3. (A) Quantification of mRNA immunoprecipitation (RIP) results. […] After immunoprecipitation with anti-MSI2, mRNA targets were quantified. The amount of each target mRNA in the pulldown was calculated relative to the input, and results from all targets were normalized to PTP4A1. […] Cells were treated with indicated compounds at two concentrations (5 μM and 20 μM) for 48 hours, then protein levels of relevant MSI2 targets were determined (EGFR, SMAD3, and MSI2). […]"}}, "data": [{"smiles": "Cc1cc(C(=O)OCc2nc(N)c3c(C)c(C)sc3n2)c(N)cc1F", "note": "[R12–8–44–3]", "values": [{"measurement": "inhibition of hnRNP A1 RNA binding", "setting": "[1]", "value": "does not inhibit"}, {"measurement": "cellular MSI2 protein levels", "setting": "[2]", "value": "unchanged"}, {"measurement": "SMAD3 and EGFR protein levels", "setting": "[3]", "value": "phenocopied the effect of MSI2 depletion on these two targets"}, {"measurement": "amount of MSI2 protein", "setting": "[3]", "value": "without changing the amount of MSI2"}, {"measurement": "cell viability (CellTiter-Blue) in combination with osimertinib", "setting": "[4]", "value": "small but statistically significant decrease in cell viability"}, {"measurement": "clonogenic assay in combination with osimertinib", "setting": "[5]", "value": "robust combined effect with osimertinib"}, {"measurement": "amount of target mRNA associated with MSI2 (PTP4A, SMAD3, EGFR, MSI2)", "setting": "[6]", "value": "statistically significant reduction in the amount of mRNA associated with MSI2"}]}]}
